Measurements: BindingDB's records for doi:10.1021/acs.jmedchem.8b01908 (Chinese Academy of Sciences, 2019)
Positions of bridges follow the written chain, without caps; N, C: chain ends. Residues, ends and D or L forms follow the SMILES beside them.

Experiment: Inhibition of the intrinsic peri-cellular uPA in mouse CT26 cells assessed as reduction in cell invasion measured every hour by transwell assay

Q: With `CC[C@H](C)[C@@H]1NC(=O)[C@H](Cc2ccc(O)cc2)NC(=O)[C@H](CCCNC(=N)N)NC(=O)[C@H](CO)NC(=O)[C@H](Cc2ccc(O)cc2)NC(=O)[C@H](C)NC(=O)[C@@H]2CCCN2C(=O)[C@@H](NC(C)=O)CSSC[C@@H](C(N)=O)NC(=O)CNC1=O` (Ac-CPAYSRYIGC-NH2; disulfide 1-10) as the compound, how does the IC50 read?
A: 5.02 µM

Q: Which IC50 does the source give for `CC(=O)N[C@H]1CSSC[C@@H](C(N)=O)NC(=O)[C@H](CC(=O)O)NC(=O)[C@H](CC(C)C)NC(=O)[C@H](Cc2ccc(O)cc2)NC(=O)[C@H](CCCNC(=N)N)NC(=O)[C@H](CO)NC(=O)[C@H](Cc2ccc(O)cc2)NC(=O)[C@H](C)NC(=O)[C@@H]2CCCN2C1=O` (Ac-CPAYSRYLDC-NH2; disulfide 1-10) here?
A: 39.4 µM

Q: Which IC50 does the source give for `CC[C@H](C)[C@@H]1NC(=O)[C@H](Cc2ccc(O)cc2)NC(=O)[C@H](CCCNC(=N)N)NC(=O)[C@H](CO)NC(=O)[C@H](Cc2ccc(O)cc2)NC(=O)[C@H](C)NC(=O)[C@@H]2CCCN2C(=O)[C@@H](N)CSSC[C@@H](C(=O)O)NC(=O)CNC1=O` (H-CPAYSRYIGC-OH; disulfide 1-10) here?
A: 3.28 µM
